Experimental data as given in ChEMBL document CHEMBL1201862, “PubChem BioAssay data set” (2004).
The source made the active and inactive calls.

What was measured:
[1] = target: Cytochrome P450 3A4 (Homo sapiens, UniProt P08684);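 further: CYP3A4 tested as one member of a cytochrome P450 panel screen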
[2] = A cytotoxicity screen of small molecule inhibitors of the PhoP region in Salmonella typhi identified in the primary screen. [Related pubchem assays: 1850, 1864, 1985 ]; format: functional
[3] = target: T1, Short transient receptor potential channel 4 (Mus musculus, UniProt Q9QUQ5); assay: mouse TRPC4 channel inhibitors, dose response, cell-based, HEK293 TRPC4/mu-opioid, Fluo-4 calcium (AID 434942); format: functional;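 further: potency of inhibitors blocking the TRPC4 calcium response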
T1 sequence (Q9QUQ5 whole entry): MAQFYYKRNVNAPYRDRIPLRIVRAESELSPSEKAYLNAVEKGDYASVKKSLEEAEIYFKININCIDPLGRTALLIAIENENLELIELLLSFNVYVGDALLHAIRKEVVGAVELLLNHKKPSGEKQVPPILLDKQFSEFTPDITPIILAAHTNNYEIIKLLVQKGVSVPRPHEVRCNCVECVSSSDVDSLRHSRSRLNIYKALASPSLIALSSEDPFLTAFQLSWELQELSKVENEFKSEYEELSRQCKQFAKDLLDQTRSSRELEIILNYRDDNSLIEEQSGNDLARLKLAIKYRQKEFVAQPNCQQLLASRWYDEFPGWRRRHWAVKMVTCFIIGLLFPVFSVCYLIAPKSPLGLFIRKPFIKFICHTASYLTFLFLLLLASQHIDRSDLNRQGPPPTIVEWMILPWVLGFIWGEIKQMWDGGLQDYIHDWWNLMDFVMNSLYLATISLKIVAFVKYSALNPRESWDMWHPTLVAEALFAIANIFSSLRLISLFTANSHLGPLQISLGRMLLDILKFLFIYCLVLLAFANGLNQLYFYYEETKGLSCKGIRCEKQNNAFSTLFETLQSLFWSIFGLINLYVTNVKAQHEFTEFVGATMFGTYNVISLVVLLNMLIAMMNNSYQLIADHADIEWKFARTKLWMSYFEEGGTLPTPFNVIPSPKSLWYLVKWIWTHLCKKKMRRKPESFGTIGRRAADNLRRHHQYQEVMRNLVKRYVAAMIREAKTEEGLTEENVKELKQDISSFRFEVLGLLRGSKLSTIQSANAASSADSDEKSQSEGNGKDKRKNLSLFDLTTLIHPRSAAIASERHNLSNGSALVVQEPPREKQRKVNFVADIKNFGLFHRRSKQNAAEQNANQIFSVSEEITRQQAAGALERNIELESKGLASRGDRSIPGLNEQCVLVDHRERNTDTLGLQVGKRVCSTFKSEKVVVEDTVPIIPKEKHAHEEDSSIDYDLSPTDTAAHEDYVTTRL

[4] = target: Dual specificity tyrosine-phosphorylation-regulated kinase 1A (Rattus norvegicus, UniProt Q63470); format: biochemical, Homo sapiens
[5] = target: Heat shock protein HSP 90-alpha (Homo sapiens, UniProt P07900); format: functional, organism-based
[6] = target: T2, Carboxy-terminal domain RNA polymerase II polypeptide A small phosphatase 1 (Homo sapiens, UniProt Q9GZU7); assay: inhibitors of CTDSP1, concentration-response testing, biochemical assay, absorbance-based, actives from ultra-high-throughput screening (AID 540297); format: functional
T2 sequence (Q9GZU7 whole entry): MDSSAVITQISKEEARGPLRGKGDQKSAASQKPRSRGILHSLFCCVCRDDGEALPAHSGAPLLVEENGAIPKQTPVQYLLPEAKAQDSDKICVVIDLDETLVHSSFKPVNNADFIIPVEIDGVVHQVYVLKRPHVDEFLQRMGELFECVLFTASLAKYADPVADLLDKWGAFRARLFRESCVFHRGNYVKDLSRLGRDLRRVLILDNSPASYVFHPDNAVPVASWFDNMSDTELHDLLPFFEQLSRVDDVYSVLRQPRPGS

[7] = target: T3, Microphthalmia-associated transcription factor (Homo sapiens, UniProt O75030); assay: TRPM1 promoter luciferase signal decrease, dose response, MITF inhibitor project, cell-based, SK-MEL-5, cherry-picked, set 3 (AID 493073); format: functional
T3 sequence (O75030 whole entry): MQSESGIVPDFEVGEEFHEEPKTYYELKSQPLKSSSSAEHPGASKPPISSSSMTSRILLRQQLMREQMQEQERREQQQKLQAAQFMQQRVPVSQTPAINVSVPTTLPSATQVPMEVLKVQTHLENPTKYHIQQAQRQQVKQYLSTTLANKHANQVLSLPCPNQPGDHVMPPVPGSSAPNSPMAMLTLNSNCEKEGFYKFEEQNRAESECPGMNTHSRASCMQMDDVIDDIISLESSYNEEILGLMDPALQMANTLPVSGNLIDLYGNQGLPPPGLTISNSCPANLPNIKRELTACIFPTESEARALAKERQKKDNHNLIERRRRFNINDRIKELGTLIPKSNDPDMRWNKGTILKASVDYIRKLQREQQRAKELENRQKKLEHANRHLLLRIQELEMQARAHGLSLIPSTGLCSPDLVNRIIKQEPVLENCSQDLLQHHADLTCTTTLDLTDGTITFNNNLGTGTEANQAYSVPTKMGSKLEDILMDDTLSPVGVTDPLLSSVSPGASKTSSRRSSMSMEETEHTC

[8] = target: T4, High affinity choline transporter 1 (Homo sapiens, UniProt Q9GZV3); assay: CHT inhibitors, dose response, cell-based, 5-point CRC, membrane potential dye (AID 504840); format: functional
T4 sequence (Q9GZV3 whole entry): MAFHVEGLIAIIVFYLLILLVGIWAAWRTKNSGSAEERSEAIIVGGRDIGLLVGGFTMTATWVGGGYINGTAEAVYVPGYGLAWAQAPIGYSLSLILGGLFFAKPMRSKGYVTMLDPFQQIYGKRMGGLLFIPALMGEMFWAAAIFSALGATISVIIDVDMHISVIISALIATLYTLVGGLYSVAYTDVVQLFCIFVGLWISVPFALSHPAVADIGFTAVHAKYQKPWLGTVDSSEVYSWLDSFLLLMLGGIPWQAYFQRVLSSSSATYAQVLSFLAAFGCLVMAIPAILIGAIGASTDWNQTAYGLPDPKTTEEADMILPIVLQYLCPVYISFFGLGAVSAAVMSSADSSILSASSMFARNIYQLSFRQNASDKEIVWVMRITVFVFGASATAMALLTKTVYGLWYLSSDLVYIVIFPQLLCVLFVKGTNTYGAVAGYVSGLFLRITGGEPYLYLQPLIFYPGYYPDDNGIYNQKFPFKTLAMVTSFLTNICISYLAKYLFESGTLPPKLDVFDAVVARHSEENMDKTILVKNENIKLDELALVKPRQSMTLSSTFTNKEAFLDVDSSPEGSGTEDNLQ

[9] = target: T1, Short transient receptor potential channel 4; assay: mouse TRPC4 channel activators, dose response, cell-based, HEK293 TRPC4/mu-opioid, Fluo-4 calcium (AID 434937); format: functional
[10] = inhibitors of intracellular T. cruzi replication, confirmation, NIH3T3 host cells, beta-gal luminescence (AID 2044); format: functional, cell-based;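 further: intracellular parasites grown in NIH/3T3 mouse fibroblasts as host cells; luminescent beta-galactosidase reporter signal from transgenic T. cruzi replicating inside host cells; inhibitors lower the luminescence signal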
[11] = cytotoxicity toward NIH3T3 fibroblasts, dose response, counter-screen, cell-based, ATP luminescence, mouse fibroblasts (AID 2010); format: functional;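 further: cells exposed to compound for about 90 hours before reading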

Cytochrome P450 3A4, sequence (P08684 whole entry): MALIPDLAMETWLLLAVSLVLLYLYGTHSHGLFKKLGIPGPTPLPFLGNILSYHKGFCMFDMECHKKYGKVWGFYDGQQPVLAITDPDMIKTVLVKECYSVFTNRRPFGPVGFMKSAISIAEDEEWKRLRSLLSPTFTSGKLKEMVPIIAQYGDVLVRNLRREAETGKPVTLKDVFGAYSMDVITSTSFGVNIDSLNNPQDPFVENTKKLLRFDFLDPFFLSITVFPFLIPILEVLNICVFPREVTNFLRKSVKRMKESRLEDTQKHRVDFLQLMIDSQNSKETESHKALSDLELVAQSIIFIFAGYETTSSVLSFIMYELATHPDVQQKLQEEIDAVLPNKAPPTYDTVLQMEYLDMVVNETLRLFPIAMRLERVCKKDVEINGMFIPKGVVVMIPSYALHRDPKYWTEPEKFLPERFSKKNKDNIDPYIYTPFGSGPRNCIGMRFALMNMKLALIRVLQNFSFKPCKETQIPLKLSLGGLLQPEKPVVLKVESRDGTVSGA

With `CSc1nc2cc(S(=O)(=O)N3CCCCC3)ccc2s1` the AC50 [1] was “inconclusive”.
With `CCc1nccc2c1[nH]c1ccccc12` the EC50 [2] was > 50 µM (active), the EC50 [3] was 2.99 µM (active) and the AC50 [4] was 5.67 µM (active).
For `O=C1C2C3C=CC(C3)C2C(=O)N1CN(Cc1ccccc1)CN1C(=O)C2C3C=CC(C3)C2C1=O` (stereo unspecified), the AC50 [5] was 17.4 µM (active).
For `CCc1ccccc1NC(=O)COc1ccc2oc(-c3ccc(OC)cc3)cc(=O)c2c1`, the IC50 [6] was 8.65 µM (active).
For `CC(/C=N/NC(=O)c1cc(-c2ccncc2)nc2ccccc12)=C\c1ccco1`, the AC50 [7] was 2.4 µM (active) and the IC50 [8] was 9.98 µM (active).
In the case of `CN(C)CC1Oc2ccccc2OC1(O)c1ccccc1` (stereo unspecified), the AC50 [5] is reported as 2.52 µM (active).
In the case of `COc1ccc(CCN2C(=O)C=CC2=O)cc1OC`, the AC50 [5] is reported as 3.1 µM (active).
In the case of `COc1ccc(CCN(C)C(=O)C2CCCN(C3CCN(Cc4ccccc4)CC3)C2)cc1OC` (stereo unspecified), the EC50 [9] is reported as 1.19 µM (active).
For `CCCCCCCCC/C(=N\O)c1ccccn1`, the EC50 [10] was 1.97 µM (active), the EC50 [11] was > 30 µM (not active) and the AC50 [5] was 4.09 µM (active).
For `Cc1ccc(C(=O)OCC(=O)c2ccc(CC(=O)N3CCOCC3)s2)c(C)c1`, the IC50 [6] was 4.73 µM (active).
With `O=C(O)/C=C/c1cccc(NC(=O)Nc2ccc([N+](=O)[O-])cc2)c1` the AC50 [4] was 5.42 µM (active).
